The first data set concerns the target T1, Human recombinant TACE enzyme (Homo sapiens, UniProt P78536).
T1 construct: purchased R and D Systems, Abingdon, UK 930-ADB
Put plainly: TACE assay (fluorescent peptide substrate). The format is biochemical. The settings on record: 3.5 h; single concentration @2 (μM); read-out: Av. TACE Inhibition, % @2. As to the method: The activity of the compounds as TACE inhibitors was determined using a commercially available peptide substrate (M-2255, Bachem UK Ltd, St. Helens, UK) and recombinant TACE enzyme (930-ADB, R and D Systems, Abingdon, UK). Human recombinant TACE enzyme (5 ng/30 μL) was incubated for 3.5 hour at 37° C. in assay buffer (25 mM Tris.HCl, 2.5 μM ZnCl2, 0.005% Brij 35, pH 8.0) with 5 μM substrate in the presence of test compound (TACE inhibitor). The extent of TACE activity was determined by measurement of the fluorescence (excitation 355 nm, emission 460 nm).
Percent activity (% activity) for each test compound was calculated as:
% activity={(S^C−B)/(S^o−B)}×100
wherein S^C denotes signal measured in the presence of enzyme and the compound being tested, S^o denotes signal measured in the presence of enzyme but in the absence of the compound being tested, and B denotes the background signal measured in the absence of both enzyme and compound being tested. The IC50 corresponds to the concentration which achieves 50% activity.
T1 sequence (P78536 215-671 limits assumed): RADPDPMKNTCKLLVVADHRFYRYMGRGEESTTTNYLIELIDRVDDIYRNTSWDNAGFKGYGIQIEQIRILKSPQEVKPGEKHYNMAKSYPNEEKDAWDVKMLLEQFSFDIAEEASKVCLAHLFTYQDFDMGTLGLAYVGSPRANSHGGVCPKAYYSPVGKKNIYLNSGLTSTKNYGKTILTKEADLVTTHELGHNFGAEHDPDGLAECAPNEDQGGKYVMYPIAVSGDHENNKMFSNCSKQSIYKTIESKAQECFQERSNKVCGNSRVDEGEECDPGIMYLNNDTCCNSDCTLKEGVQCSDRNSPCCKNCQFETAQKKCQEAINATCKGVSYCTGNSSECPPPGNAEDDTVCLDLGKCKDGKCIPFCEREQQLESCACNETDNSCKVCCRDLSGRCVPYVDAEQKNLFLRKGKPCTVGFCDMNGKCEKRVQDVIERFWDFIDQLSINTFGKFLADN
With `O=C(CC1c2ccccc2S(=O)(=O)N1C1CCN(Cc2ccccc2)CC1)NO` (stereo not drawn) [IX-044], the inhibition at 2 µM was 0%.

For `COc1cc2c(c(OC)c1OC)S(=O)(=O)N(c1ccccc1)C2CC(=O)NO` (stereo not drawn) [IX-071], the inhibition at 2 µM amounted to 10%.

Turning to `COc1cc(OC)c2c(c1)C(CC(=O)NO)N(c1ccccc1)S2(=O)=O` (stereo not drawn) [IX-072], the inhibition at 2 µM is 15%.

`Cc1ccc2c(c1)S(=O)(=O)N(c1ccccc1)C2CC(=O)NO` (stereo not drawn) [IX-073]: the inhibition at 2 µM was 32%.

For the compound `O=C(CC1c2ccc(Br)cc2S(=O)(=O)N1c1ccccc1)NO` (stereo not drawn) [IX-074], the inhibition at 2 µM amounted to 10%.

With `O=C(CC1c2ccc(-c3ccccc3)cc2S(=O)(=O)N1c1ccccc1)NO` (stereo not drawn) [IX-079], the inhibition at 2 µM is 4%.

For the compound `COc1cccc2c1C(CC(=O)NO)N(c1ccccc1)S2(=O)=O` (stereo not drawn) [IX-082], the inhibition at 2 µM worked out at 35%.

On to `O=C(CC1c2cccc(C(F)(F)F)c2S(=O)(=O)N1c1ccccc1)NO` (stereo not drawn) [IX-084], for which the inhibition at 2 µM was determined as 0%.

On to `Cc1cc(F)c2c(c1)C(CC(=O)NO)N(c1ccccc1)S2(=O)=O` (stereo not drawn) [IX-085], for which the inhibition at 2 µM turned out to be 57%.

Turning to `O=C(CC1c2c(ccc(F)c2Cl)S(=O)(=O)N1c1ccccc1)NO` (stereo not drawn) [IX-086], the inhibition at 2 µM amounted to 20%.

The data set is the same for the next values; noted with them: 3.5 h; single concentration @100 (μM); read-out: Av. TACE Inhibition, % @100.
With `COc1ccccc1N1C(CC(=O)NO)c2ccccc2S1(=O)=O` (stereo not drawn) [IX-008], the inhibition at 100 µM worked out at 50%.

Turning to `O=C(CC1c2ccccc2S(=O)(=O)N1c1cccc(Oc2ccccc2)c1)NO` (stereo not drawn) [IX-011], the inhibition at 100 µM was found to be 86%.

For `CSc1cccc(N2C(CC(=O)NO)c3ccccc3S2(=O)=O)c1` (stereo not drawn) [IX-013], the inhibition at 100 µM was found to be 93%.

`O=C(CC1c2ccccc2S(=O)(=O)N1c1cccc(C(F)(F)F)c1)NO` (stereo not drawn) [IX-014]: the inhibition at 100 µM is 81%.

With `O=C(CC1c2ccccc2S(=O)(=O)N1c1cccc(OC(F)(F)F)c1)NO` (stereo not drawn) [IX-015], the inhibition at 100 µM was 54%.

As to `O=C(CC1c2ccccc2S(=O)(=O)N1c1cccc(-c2ccccc2)c1)NO` (stereo not drawn) [IX-017], the inhibition at 100 µM came out at 97%.

On to `O=C(CC1c2ccccc2S(=O)(=O)N1c1ccc(C(F)(F)F)cc1)NO` (stereo not drawn) [IX-019], for which the inhibition at 100 µM turned out to be 55%.

With `CC(C)c1ccc(N2C(CC(=O)NO)c3ccccc3S2(=O)=O)cc1` (stereo not drawn) [IX-024], the inhibition at 100 µM is 50%.

For `O=C(CC1c2ccccc2S(=O)(=O)N1c1ccc(-n2cncn2)cc1)NO` (stereo not drawn) [IX-030], the inhibition at 100 µM worked out at 54%.

For the compound `O=C(CC1c2ccccc2S(=O)(=O)N1c1ccc(-c2cnco2)cc1)NO` (stereo not drawn) [IX-031], the inhibition at 100 µM is 70%.

With `O=C(CC1c2ccccc2S(=O)(=O)N1c1ccc(N2CCOCC2)cc1)NO` (stereo not drawn) [IX-034], the inhibition at 100 µM was found to be 36%.

In the case of `O=C(CC1NS(=O)(=O)c2ccccc21)NO` (stereo not drawn) [IX-039], the inhibition at 100 µM came to 28%.

In the case of `CN1C(CC(=O)NO)c2ccccc2S1(=O)=O` (stereo not drawn) [IX-040], the inhibition at 100 µM worked out at 28%.

Turning to `CN(C)CCOc1ccc(N2C(CC(=O)NO)c3ccccc3S2(=O)=O)cc1` (stereo not drawn) [IX-051], the inhibition at 100 µM was 81%.

For `O=C(CC1c2ccccc2S(=O)(=O)N1c1ccc(OCCN2CCOCC2)cc1)NO` (stereo not drawn) [IX-052], the inhibition at 100 µM came to 53%.

System in another data set: not given
Assay: not given
Conditions: not given
Turning to `O=C(CC1c2ccccc2S(=O)(=O)N1c1cccc(F)c1)NO` (stereo not drawn) [Compound (5.36), 2-[2-(3-Fluoro-phenyl)-1,1-dioxo-2,3-dihydro-1H-benzo[d]isothiazol-3-yl]-N-hydroxyacetamide], the melting point was 145 to 147 °C (dec.).

Compound `O=C(CC1NS(=O)(=O)c2ccccc21)NO` (stereo not drawn) [Compound (5.37), 2-(1,1-Dioxo-2,3-dihydro-1H-benzo[d]isothiazol-3-yl)-N-hydroxyacetamide] yielded a melting point of 152 to 154 °C.

Compound `COc1ccc(N2C(CC(=O)NO)c3ccccc3S2(=O)=O)cn1` (stereo not drawn) [Compound (5.40), 2-[2-(6-Methoxy-pyridin-3-yl)-1,1-dioxo-2,3-dihydro-1Hbenzo[d]isothiazol-3-yl]-N-hydroxyacetamide] displayed a melting point of 189 to 190 °C.

In turn, `O=C(CC1c2ccccc2S(=O)(=O)N1C1CCN(Cc2ccccc2)CC1)NO` (stereo not drawn) [Compound (5.42), 2-[2-(1-Benzylpiperidin-4-yl)-1,1-dioxo-2,3-dihydro-1H-benzo[d]isothiazol-3-yl]-N-hydroxyacetamide] returned a melting point of 141 to 143 °C.

For `C=CCOc1ccc(N2C(CC(=O)NO)c3ccccc3S2(=O)=O)cc1` (stereo not drawn) [Compound (5.47), 2-[2-(4-Allyloxy-phenyl)-1,1-dioxo-2,3-dihydro-1H-benzo[d]isothiazol-3-yl]-N-hydroxyacetamide], the melting point is 166 to 168 °C (dec.).

For the compound `O=C(CC1c2ccccc2S(=O)(=O)N1c1ccc(OCc2ccncc2)cc1)NO` (stereo not drawn) [Compound (5.48), 2-{1,1-Dioxo-2-[4-(pyridin-4-ylmethoxy)phenyl]-2,3-dihydro-1H-benzo[d]isothiazol-3-yl}-N-hydroxyacetamide], the melting point was 212 to 214 °C (dec.).

Take `O=C(CC1c2ccccc2S(=O)(=O)N1c1ccc(OCc2ccccn2)cc1)NO` (stereo not drawn) [Compound (5.50), 2-{1,1-Dioxo-2-[4-(pyridin-2-ylmethoxy)phenyl]-2,3-dihydro-1H-benzo[d]isothiazol-3-yl}-N-hydroxyacetamide]: the melting point was > 170 °C (dec.).

As for `CCC#CCOc1ccc(N2C(CC(=O)NO)c3ccccc3S2(=O)=O)cc1` (stereo not drawn) [Compound (5.52), 2-[1,1-Dioxo-2-(4-pent-2-ynyloxy-phenyl)-2,3-dihydro-1H-benzo[d]isothiazol-3-yl]-N-hydroxyacetamide], the melting point is 135 to 137 °C (dec.).

Take `C#CCOc1ccc(N2C(CC(=O)NO)c3ccccc3S2(=O)=O)cc1` (stereo not drawn) [Compound (5.53), 2-[1,1-Dioxo-2-(4-prop-2-ynyloxy-phenyl)-2,3-dihydro-1H-benzo[d]isothiazol-3-yl]-N-hydroxyacetamide]: the melting point is 155 to 157 °C (dec.).

For `C#CCCOc1ccc(N2C(CC(=O)NO)c3ccccc3S2(=O)=O)cc1` (stereo not drawn) [Compound (5.54), 2-[2-(4-But-3-ynyloxy-phenyl)-1,1-dioxo-2,3-dihydro-1H-benzo[d]isothiazol-3-yl]-N-hydroxyacetamide], the melting point was 148 to 150 °C (dec.).

For the compound `Cc1cc(C(C)Oc2ccc(N3C(CC(=O)NO)c4ccccc4S3(=O)=O)cc2)c2ccccc2n1` (stereo not drawn) [Compound (5.56), 2-(2-{4-[1-(2-Methylquinolin-4-yl)ethoxy]-phenyl}-1,1-dioxo-2,3-dihydro-1H-benzo[d]isothiazol-3-yl)-N-hydroxyacetamide], the melting point is 200 to 204 °C (dec.).

For `O=C(CC1c2ccccc2S(=O)(=O)N1c1ccc(OCc2ccnc3ccccc23)cc1)NO` (stereo not drawn) [Compound (5.57), 2-{1,1-Dioxo-2-[4-(quinolin-4-ylmethoxy)phenyl]-2,3-dihydro-1H-benzo[d]isothiazol-3-yl}-N-hydroxyacetamide], the melting point is 218 to 220 °C (dec.).

In the case of `Cc1cc(COc2ccc(N3C(CC(=O)NO)c4ccccc4S3(=O)=O)cc2)c2cc(F)ccc2n1` (stereo not drawn) [Compound (5.58), 2-{2-[4-(6-Fluoro-2-methyl-quinolin-4-ylmethoxy)-phenyl]-1,1-dioxo-2,3-dihydro-1H-benzo[d]isothiazol-3-yl}-N-hydroxyacetamide], the melting point was > 140 °C (dec.).

As for `Cc1cc(COc2ccc(N3C(CC(=O)NO)c4ccccc4S3(=O)=O)cc2)c2cc(Cl)ccc2n1` (stereo not drawn) [Compound (5.59), 2-{2-[4-(6-Chloro-2-methylquinolin-4-ylmethoxy)-phenyl]-1,1-dioxo-2,3-dihydro-1H-benzo[d]isothiazol-3-yl}-N-hydroxyacetamide], the melting point is > 215 °C (dec.).

With `Cc1cc(COc2ccc(N3C(CC(=O)NO)c4ccccc4S3(=O)=O)cc2)ccn1` (stereo not drawn) [Compound (5.60), 2-{2-[4-(2-Methyl-pyridin-4-ylmethoxy)-phenyl]-1,1-dioxo-2,3-dihydro-1H-benzo[d]isothiazol-3-yl}-N-hydroxyacetamide], the melting point was > 204 °C (dec.).

For the compound `Cc1cc(COc2ccc(N3C(CC(=O)NO)c4ccccc4S3(=O)=O)cc2)cc(C)n1` (stereo not drawn) [Compound (5.61), 2-{2-[4-(2,6-Dimethyl-pyridin-4-ylmethoxy)phenyl]-1,1-dioxo-2,3-dihydro-1H-benzo[d]isothiazol-3-yl}-N-hydroxyacetamide], the melting point was > 210 °C (dec.).

`COc1ccc2c(c1)C(CC(=O)NO)N(c1ccccc1)S2(=O)=O` (stereo not drawn) [Compound (5.62), 2-(5-Methoxy-1,1-dioxo-2-phenyl-2,3-dihydro-1H-benzo[d]isothiazol-3-yl)-N-hydroxyacetamide] yielded a melting point of 180 to 182 °C.

For `O=C(CC1c2cc3c(cc2S(=O)(=O)N1c1ccccc1)OCCO3)NO` (stereo not drawn) [Compound (5.63), 2-(1,1-Dioxo-2-phenyl-2,3,6,7-tetrahydro-1H-5,8-dioxa-thia-2-aza-cyclopenta[b]naphthalen-3-yl)-N-hydroxyacetamide], the melting point was 202 to 204 °C (dec.).

Consider `COc1cc2c(cc1OC)S(=O)(=O)N(c1ccccc1)C2CC(=O)NO` (stereo not drawn) [Compound (5.64), 2-(5,6-Dimethoxy-1,1-dioxo-2-phenyl-2,3-dihydro-1H-benzo[d]isothiazol-3-yl)-N-hydroxyacetamide], for which the melting point was 197 to 199 °C (dec.).

With `O=C(CC1c2ccc(Br)cc2S(=O)(=O)N1c1ccccc1)NO` (stereo not drawn) [Compound (5.68), 2-(6-Bromo-1,1-dioxo-2-phenyl-2,3-dihydro-1H-benzo[d]isothiazol-3-yl)-N-hydroxyacetamide], the melting point is 182 to 183 °C.
